Measured values: US9504702B2, “Methods of inhibition of protein fucosylation in vivo using fucose analogs” (Seattle Genetics, Inc., priority 2010, dated 2016)
Where two headings read alike, the source gives them in different places.

What was measured:
[1] = test system: antibody core fucosylation (antibodies that did not bind to KLH, recovered from protein A column); assay: In vivo antibody fucosylation after ip dosing (Example 1, Study 1), AOL lectin dot blot; conditions: 150 mg/kg ip daily for 7 days
Method: Female BALB/c mice were immunized with Keyhole Limpet Hemocyanin (KLH) 30-60 days prior to starting this study. For the first study, mice were dosed ip with 150 mg/kg of alkynyl fucose (SGD-1887), alkynyl fucose peracetate (SGD-1890), 2-fluorofucose (SGD-2083), or 2-fluorofucose triacetate (SGD-2084) daily for 7 days or were untreated. On day 2, mice were also boosted with KLH. On the day after the last ip dose, mice were terminally bled and serum obtained. For the second study, mice were given 100 mM of 2-fluorofucose (SGD-2083) in their drinking water or given untreated water for 7 days, boosted with KLH, and continued with 100 mM 2-fluorofucose containing drinking water or untreated water for 7 more days before being terminally bled. Serum was then obtained. No mice died in either study. For both studies, serum was passed over a commercial anti-KLH affinity column to obtain KLH-specific polyclonal antibodies. The flow through from the anti-KLH affinity column was passed over a commercial protein A column to obtain the remaining antibodies.
Dot blots: 0.5 μg each of antibodies from untreated and treated animals, as well as standards of antibody cAC10 having known amounts of core fucosylation (0 to 100% fucose), were blotted onto a nitrocellulose membrane. The proteins levels were visualized by Ponceau staining. The blot was probed with biotinylated Aspergillus oryzae L-fucose-specific lectin (AOL) (which binds to fucosylated antibodies) and developed with streptavidin HRP and ECL. Gel loading (visible) and fucose signals (bioluminescence) were measured with an Alpha Innotech camera and quantitated with the machine software.

[2] = test system: LP-1, a human multiple myeloma cell line (IgG fucosylation); assay: Fucosylation of LP-1-generated IgG, AOL dot blot; type: cell-based; conditions: for activity at 100 µM: Homo sapiens, LP-1, 120 h, read-out: % of control fucosylated IgG value; for activity at 100 µM / % of control fucosylated IgG value: 5 days, AOL dot blot, multiple samples separated by semicolon; for activity at 100 µM / inhibition of IgG fucosylation in human cells (decrease in AOL signal, dot blot) / % of control fucosylated IgG value: LP-1 cells; for inhibition of IgG fucosylation in human cells (decrease in AOL signal, dot blot) / dot blot results (% fucose signal of control) / % of control fucosylated IgG value: 100 μM; for dot blot results (% fucose signal of control): LP-1-generated IgG
Method: To further evaluate the activities of different fucose analogs, 48 different fucose analogs and other four glycosylation inhibitors were tested for their ability to affect the fucosylation the LP-1-generated IgG. LP-1 cells (250,000 cells/mL, 3 mL per compound in 6-well plates) were incubated with 100 μM of each fucose analog for 5 days at 37° C. with a humidified atmosphere of 5% CO2 in IgG-depleted tissue culture media (90% RPMI with 10% IgG-depleted heat inactivated FBS). The IgG was isolated as described above using only 0.5 mL of MabSelect™ protein A resin slurry and one spin cup per sample with elution in 400 μL of IgG elution buffer into 25 μL of 9 M Tris buffer, pH 9. The eluates were concentrated to 10-20 μL per sample and 2 μL of each of the concentrated eluates were dotted onto a nitrocellulose membrane and stained with Ponceau S to estimate and adjust the sample loading for AOL staining. From this estimation of total protein in each sample, approximately 0.5 μg of each sample was dotted onto the membrane, air-dried, and stained with Ponceau S. An image of this stained membrane was captured using an Alpha Innotech FlourChem® Q system. The membrane was then blocked with 5% Bovine Serum Albumin (BSA) in Tris Buffered Saline (TBS) for 1 hr, washed with TBST (TBS with […]) 3 times and then incubated with 5 μg/ml biotinylated-AOL for 1 hr. The membrane was washed again with TBST 3 times, followed by Streptavidin-HRP incubation for 30 min and final washes with TBST 3 times.

[3] = test system: P-selectin ligand on Ramos cells; assay: Cell surface P-selectin ligand by FACS, P-selectin fusion protein, Ramos; type: cell-based, human
Method: 100 μM of each inhibitor was used under standard culture conditions for approximately 1-2 weeks with regular changes of culture medium including fresh inhibitor. After the incubation period, the cells were analyzed by FACS using four different detection reagents: biotinylated-Lens culimaris agglutinin-A (LCA), anti-Lewis' antibody (anti-SSEA1), an anti-Lewis^y antibody (cBR96), and a Recombinant Human P-Selectin/CD62P/Fc Fusion protein. The procedure involved washing of the cells with FACS buffer (PBS+10% bovine serum albumin+0.02% sodium azide) 3 times followed by incubation with the primary detection reagent for 1 hr at 4° C., followed by 3 washes with FACS buffer and then incubation with the secondary detection reagent for 1 hr at 4° C. The cells were finally washed with FACS buffer 3 times and resuspended in FACS buffer and examined using a BD FACScan instrument. […] The P-selectin fusion protein detects P-selectin ligand present on the surface of cells, an interaction which involves the sialyl Lewis' epitope present of the P-selectin ligand.

[4] = test system: antibody core fucosylation (CHO DG44 cell line producing humanized IgG1 anti-CD70 antibody h1F6); assay: Inhibition of antibody core fucosylation in CHO DG44 cell culture producing h1F6; type: cell-based; conditions: day 5, CHO DG44 h1F6; for Inhibition at 50 μM: 50 μM fucose analog; for Inhibition at 1 mM / inhibition at 1000 µM: 1 mM fucose analog
Method: (§1) Fucose analogs have been evaluated for their effect on antibody core fucosylation at concentrations of 50 μM and 1 mM generally as described in Published US Patent Application 2009-0317869. Briefly, the protocol was as follows: A CHO DG44 cell line producing a humanized IgG1 anti-CD70 monoclonal antibody, h1F6 (see International Patent Publication WO 06/113909) was cultured at 7.5×10^5 cells per mL in 2 mLs of CHO culture media at 37°, 5% CO2 and shaking at 100 RPM in a 6 well tissue culture plate. Media was supplemented with insulin like growth factor (IGF), penicillin, streptomycin and either 1 mM or 50 μM of the fucose analog. On day 5 post inoculation, the culture was centrifuged at 13000 RPM for 5 minutes to pellet the cells; antibodies were then purified from supernatant.
(§2) Antibody purification was performed by applying the conditioned media to protein A resin pre-equilibrated with 1× phosphate buffered saline (PBS), pH 7.4. After washing resin with 20 resin bed volumes of 1×PBS, antibodies were eluted with 5 resin bed volumes of Immunopure IgG elution buffer (Pierce Biotechnology, Rockford, Ill.). A 10% volume of 1M Tris pH 8.0 was added to neutralize the eluted fraction.

[5] = test system: antibodies (h1F6 produced by CHO DG44 cell line); assay: Incorporation of fucose analogs into antibodies in CHO DG44 cell culture; type: cell-based
Method: as §1, §2
Certain other fucose analogs were tested for their ability to be incorporated into antibodies. These fucose analogs were tested at concentrations of 50 μM and 1 mM using the methodology as described above.

[6] = test system: LP-1 cells (1,6-fucosylation on the antibody); assay: Fucosylation status of LP-1-generated IgG by reducing PLRP-MS; type: cell-based, human; conditions: 5 days; for PLRP/MS (inhibition or incorporation): in words
Source text: To further define the results of the AOL dot blot, samples of the IgGs produced by cells treated with the following fucose analogs (that gave moderate to strong decreases in the dot blot AOL signal) were isolated and examined by reducing PLRP-MS to verify the fucosylation status using the MW of the heavy chain: alkynyl fucose peracetate; 5-vinylfucose tetraaceate; 5-methylketofucose tetraacetate; 6-bromofucose tetraacetate; 6-fluorofucose tetraacetate; 5-ethylfucose tetraacetate; 5-epoxyfucose tetraacetate; 6′6-difluorofucose tetraacetate; 6-keto-6-ethyl fucose tetraacetate; and 2-fluorofucose peracetate.
40 mL samples of LP-1 cells (250,000 cells/mL) were treated with 100 μM of a fucose analog for 5 days as described above, and the IgGs were purified as described using protein A resin. The yields were estimated by UV spectroscopy assuming an extinction coefficient of 1.4 AU/(mg/mL). Seven of the ten compounds yielded enough IgG to perform the analysis (use of SGD-2067, SGD-1964, and SGD-2020 yielded <10 μg of IgG, likely due to toxicity of the analogs to the cells). The remaining IgGs were reduced with 10 mM DTT at 37° C. for 15 min and were separated on PLRP followed by MS analysis using a QTOF mass spectrometer. The resulting heavy chain peaks were examined and compared to the IgG generated by untreated cells.
The mass spectrometry signals were evaluated by comparing the peak height of the heavy chain versus heavy chain minus fucose and heavy chain minus fucose plus the mass of the fucose analog (which would arise if there was incorporation of the analog into the antibody carbohydrate).

[7] = 120 h, read-out: Inhibition at 50 μM
[8] = concentration not given in the cell (tested at 50 μM and 1 mM)

| Molecule | activity at 100 µM [2] | inhibition of IgG fucosylation in human cells (decrease in AOL signal, dot blot) [2] | dot blot results (% fucose signal of control) [2] | % Incorporation ([5]; 50 uM) | % Incorporation ([5]; 1 mM) | PLRP/MS (inhibition or incorporation) ([6]; 100 μM) | Inhibition at 50 μM [4] | Inhibition at 1 mM [4] | other results |
| --- | --- | --- | --- | --- | --- | --- | --- | --- | --- |
| C#CC(O)[C@@H](O)[C@@H](O)[C@H](O)C=O (some centres unmarked) [SGD-1887, 5-ethynylarabinose] | 3% |  |  |  |  |  |  |  | mortality [1]: No mice died; fucosylation levels of the antibodies reduced, as compared to the untreated controls ([1]; non-KLH antibodies from protein A column, dot blot, on average): about one third; signal for P-selectin ligand (increase upon treatment) [3]: not observed; Inhibition at 50 μM [4, 7]: > 80% |
| CC[C@@H]1OC(OC(C)=O)[C@@H](OC(C)=O)[C@H](OC(C)=O)[C@H]1OC(C)=O (stereo partly drawn) [SGD-1989, (3S,4R,5S,6S)-6-ethyl-tetrahydro-2H-pyran-2,3,4,5-tetrayl tetraacetate] | 11% | potentially strong inhibitors | 11 % fucose signal of control | >90% | >90% | Fully incorporated |  |  |  |
| CC(=O)OC1OC(C(F)F)C(OC(C)=O)C(OC(C)=O)C1OC(C)=O (centres unmarked) [SGD-2046, 6′6-difluoro fucose tetraacetate] |  | potentially strong inhibitors | 2 % fucose signal of control |  |  | Partial incorporator | >80% | >80% | % of control fucosylated IgG value [2]: 2 % of control; PLRP/MS fucose inhibition ([6]; 100 μM, heavy chain peak heights): ~33% |
| 6-allene fucose tetraacetate [SGD-2097] |  |  |  |  |  |  | 23% | 34% | % of control fucosylated IgG value [2]: 45 % of control; % Incorporation [5, 8]: ~30% |
| CC[C@@H]1OC(O)[C@@H](O)[C@H](O)[C@@H]1O (stereo partly drawn) [5-ethyl fucose, (3S,4R,5S,6S)-6-ethyl-tetrahydro-2H-pyran-2,3,4,5-tetraol] |  |  |  | >80% | >80% |  |  |  |  |
| C#CC[C@@H]1OC(OC(C)=O)[C@@H](OC(C)=O)[C@H](OC(C)=O)[C@@H]1OC(C)=O (stereo partly drawn) [SGD-1987, (3S,4R,5R,6S)-6-(prop-2-ynyl)-tetrahydro-2H-pyran-2,3,4,5-tetrayl tetraacetate] | 38% |  |  |  | 80% (1 mM) |  |  |  | Inhibition at 50 μM [4, 7]: ~10%; inhibition at 1000 µM ([4]; 120 h): 10 to 20% |
| CC(=O)OC1OC(CF)[C@@H](OC(C)=O)[C@@H](OC(C)=O)[C@@H]1OC(C)=O (stereo partly drawn) [SGD-1988, (3S,4R,5S)-6-(fluoromethyl)tetrahydro-2H-pyran-2,3,4,5-tetrayl tetraacetate] | 15% | potentially strong inhibitors | 15 % fucose signal of control | >90% | >90% | Full incorporator |  |  |  |
| C=CC1OC(OC(C)=O)C(OC(C)=O)C(OC(C)=O)C1OC(C)=O (centres unmarked) [SGD-1922, 5-ethylenylarabinose tetraacetate] |  |  | 2 % fucose signal of control |  |  | Full incorporator | ~0% | ~4% | % of control fucosylated IgG value [2]: 2 % of control |
| CC(=O)OC1OC(CBr)[C@@H](OC(C)=O)[C@@H](OC(C)=O)[C@@H]1OC(C)=O (stereo partly drawn) [SGD-1969, (3S,4R,5S)-6-(bromomethyl)tetrahydro-2H-pyran-2,3,4,5-tetrayl tetraacetate] | 1% | potentially strong inhibitors | 1 % fucose signal of control | ~50% | 20% at | Partial incorporator |  |  | inhibition at 100 µM ([6]; Homo sapiens, 120 h, heavy chain peak heights, read-out: PLRP/MS fucose inhibition): 20%; Inhibition at 50 μM [4, 7]: 50%; inhibition at 1000 µM ([4]; 120 h): 80% |
| C=C(C)[C@@H]1OC(OC(C)=O)[C@@H](OC(C)=O)[C@H](OC(C)=O)[C@@H]1OC(C)=O (stereo partly drawn) [Isopropenyl peracetyl fucose, (3S,4R,5R,6S)-6-(prop-1-en-2-yl)-tetrahydro-2H-pyran-2,3,4,5-tetrayl tetraacetate] |  |  |  | >80% (1 mM and 50 uM) | >80% (1 mM and 50 uM) |  |  |  |  |
| CC(=O)OC1O[C@@H]([C@]2(C)CO2)[C@@H](OC(C)=O)[C@@H](OC(C)=O)[C@@H]1OC(C)=O (stereo partly drawn) [5-methyloxiran-arabinose tetraacetate, (3S.4R.5S.6R)-6-((S)-2-methyloxiran-2-yl)-tetrahydro-2H-pyran-2,3,4,5-tetrayl tetraacetate] |  |  |  |  |  |  | ~0% | ~35-40% | % Incorporation [5, 8]: ~60% |
